Results published in BindingDB's records for doi:10.1016/j.bmcl.2004.08.039 (Glaxosmithkline, 2004).
pKi: −log10 of the molar value.

Biological target: T1, Dimer of Gag-Pol polyprotein [501-599,Q508K,L534I,L564I,C568A,C596A] (Human immunodeficiency virus 1, UniProt P03367, C568A/C596A/L534I/L564I/Q508K)
T1 construct: 501-599
Assay: Protease Inhibition Assay
Details: pH 6.4; 25 °C
Description: The Ki values were determined using fluorogenic substrate, 2-(aminobenzoyl)-Thr-Ile-Nle-Phe(p-NO2)-Gln-ArgNH2. A standard curve relating changes in fluorescent intensity to changes in concentration of product was used to convert fluorescent changes into molar velocities. The amount of cleavage was determined by HPLC.

SMILES | pKi
NC(=O)c1cccc(C[C@H]2C[C@H](Cc3ccccc3)N(C[C@@H](O)C[C@@H](Cc3ccc(OCCO)cc3)C(=O)N[C@H]3c4ccccc4C[C@H]3O)C2=O)c1 [3-{[(3S,5R)-5-benzyl-1-[(2S,4R)-2-hydroxy-4-{[(1S,2R)-2-hydroxy-2,3-dihydro-1H-inden-1-yl]carbamoyl}-4-{[4-(2-hydroxyethoxy)phenyl]methyl}butyl]-2-oxopyrrolidin-3-yl]methyl}benzamide] | 10.30
O=C(NCCOCCO)c1cccc(C[C@H]2C[C@H](Cc3ccccc3)N(C[C@@H](O)C[C@@H](Cc3ccccc3)C(=O)N[C@H]3c4ccccc4C[C@H]3O)C2=O)c1 [3-{[(3S,5R)-5-benzyl-1-[(2S,4R)-4-benzyl-2-hydroxy-4-{[(1S,2R)-2-hydroxy-2,3-dihydro-1H-inden-1-yl]carbamoyl}butyl]-2-oxopyrrolidin-3-yl]methyl}-N-[2-(2-hydroxyethoxy)ethyl]benzamide] | 9.62
O=C(NCCN1CCOCC1)c1cccc(C[C@H]2C[C@H](Cc3ccccc3)N(C[C@@H](O)C[C@@H](Cc3ccccc3)C(=O)N[C@H]3c4ccccc4C[C@H]3O)C2=O)c1 [3-{[(3S,5R)-5-benzyl-1-[(2S,4R)-4-benzyl-2-hydroxy-4-{[(1S,2R)-2-hydroxy-2,3-dihydro-1H-inden-1-yl]carbamoyl}butyl]-2-oxopyrrolidin-3-yl]methyl}-N-[2-(morpholin-4-yl)ethyl]benzamide] | 9.82
NC(=O)c1cccc(C[C@H]2C[C@H](Cc3ccccc3)N(C[C@@H](O)C[C@@H](Cc3ccccc3)C(=O)N[C@H]3c4ccccc4C[C@H]3O)C2=O)c1 [3-{[(3S,5R)-5-benzyl-1-[(2S,4R)-4-benzyl-2-hydroxy-4-{[(1S,2R)-2-hydroxy-2,3-dihydro-1H-inden-1-yl]carbamoyl}butyl]-2-oxopyrrolidin-3-yl]methyl}benzamide] | 10.00
CCNC(=O)Nc1cccc(C[C@H]2C[C@H](Cc3ccccc3)N(C[C@@H](O)C[C@@H](Cc3ccccc3)C(=O)N[C@H]3c4ccccc4C[C@H]3O)C2=O)c1 [(2R,4S)-2-benzyl-5-[(3S,5R)-5-benzyl-3-({3-[(ethylcarbamoyl)amino]phenyl}methyl)-2-oxopyrrolidin-1-yl]-4-hydroxy-N-[(1S,2R)-2-hydroxy-2,3-dihydro-1H-inden-1-yl]pentanamide] | 9.70
N#Cc1cccc(C[C@H]2C[C@H](Cc3ccccc3)N(C[C@@H](O)C[C@@H](Cc3ccccc3)C(=O)N[C@H]3c4ccccc4C[C@H]3O)C2=O)c1 [(2R,4S)-2-benzyl-5-[(3S,5R)-5-benzyl-3-[(3-cyanophenyl)methyl]-2-oxopyrrolidin-1-yl]-4-hydroxy-N-[(1S,2R)-2-hydroxy-2,3-dihydro-1H-inden-1-yl]pentanamide] | 10.30
O=C(N[C@H]1c2ccccc2C[C@H]1O)[C@H](Cc1ccccc1)C[C@H](O)CN1C(=O)[C@@H](Cc2cccc(O)c2)C[C@@H]1Cc1ccccc1 [(2R,4S)-2-benzyl-5-[(3S,5R)-5-benzyl-3-[(3-hydroxyphenyl)methyl]-2-oxopyrrolidin-1-yl]-4-hydroxy-N-[(1S,2R)-2-hydroxy-2,3-dihydro-1H-inden-1-yl]pentanamide] | 10.30
NC(=O)COc1cccc(C[C@H]2C[C@H](Cc3ccccc3)N(C[C@@H](O)C[C@@H](Cc3ccccc3)C(=O)N[C@H]3c4ccccc4C[C@H]3O)C2=O)c1 [(2R,4S)-2-benzyl-5-[(3S,5R)-5-benzyl-3-{[3-(carbamoylmethoxy)phenyl]methyl}-2-oxopyrrolidin-1-yl]-4-hydroxy-N-[(1S,2R)-2-hydroxy-2,3-dihydro-1H-inden-1-yl]pentanamide] | 10.05
N#CCOc1cccc(C[C@H]2C[C@H](Cc3ccccc3)N(C[C@@H](O)C[C@@H](Cc3ccccc3)C(=O)N[C@H]3c4ccccc4C[C@H]3O)C2=O)c1 [(2R,4S)-2-benzyl-5-[(3S,5R)-5-benzyl-3-{[3-(cyanomethoxy)phenyl]methyl}-2-oxopyrrolidin-1-yl]-4-hydroxy-N-[(1S,2R)-2-hydroxy-2,3-dihydro-1H-inden-1-yl]pentanamide] | 10.10
O=C(N[C@H]1c2ccccc2C[C@H]1O)[C@H](Cc1ccccc1)C[C@H](O)CN1C(=O)C(Cc2ccncc2)C[C@@H]1Cc1ccccc1 (stereo partly drawn) [(2R,4S)-2-benzyl-5-[(5R)-5-benzyl-2-oxo-3-(pyridin-4-ylmethyl)pyrrolidin-1-yl]-4-hydroxy-N-[(1S,2R)-2-hydroxy-2,3-dihydro-1H-inden-1-yl]pentanamide] | 9.51
N#Cc1ccc(CC2C[C@H](Cc3ccccc3)N(C[C@@H](O)C[C@@H](Cc3ccccc3)C(=O)N[C@H]3c4ccccc4C[C@H]3O)C2=O)cc1 (stereo partly drawn) [(2R,4S)-2-benzyl-5-[(5R)-5-benzyl-3-[(4-cyanophenyl)methyl]-2-oxopyrrolidin-1-yl]-4-hydroxy-N-[(1S,2R)-2-hydroxy-2,3-dihydro-1H-inden-1-yl]pentanamide] | 9.47
Nc1cccc(C[C@H]2C[C@H](Cc3ccccc3)N(C[C@@H](O)C[C@@H](Cc3ccccc3)C(=O)N[C@H]3c4ccccc4C[C@H]3O)C2=O)c1 [(2R,4S)-5-[(3S,5R)-3-[(3-aminophenyl)methyl]-5-benzyl-2-oxopyrrolidin-1-yl]-2-benzyl-4-hydroxy-N-[(1S,2R)-2-hydroxy-2,3-dihydro-1H-inden-1-yl]pentanamide] | 10.00
Nc1ccc(CC2C[C@H](Cc3ccccc3)N(C[C@@H](O)C[C@@H](Cc3ccccc3)C(=O)N[C@H]3c4ccccc4C[C@H]3O)C2=O)cc1 (stereo partly drawn) [(2R,4S)-5-[(5R)-3-[(4-aminophenyl)methyl]-5-benzyl-2-oxopyrrolidin-1-yl]-2-benzyl-4-hydroxy-N-[(1S,2R)-2-hydroxy-2,3-dihydro-1H-inden-1-yl]pentanamide] | 8.64
CCOC(=O)CNC(=O)Nc1cccc(C[C@H]2C[C@H](Cc3ccccc3)N(C[C@@H](O)C[C@@H](Cc3ccccc3)C(=O)N[C@H]3c4ccccc4C[C@H]3O)C2=O)c1 [ethyl 2-{[(3-{[(3S,5R)-5-benzyl-1-[(2S,4R)-4-benzyl-2-hydroxy-4-{[(1S,2R)-2-hydroxy-2,3-dihydro-1H-inden-1-yl]carbamoyl}butyl]-2-oxopyrrolidin-3-yl]methyl}phenyl)carbamoyl]amino}acetate] | 10.00
COC(=O)c1cccc(C[C@H]2C[C@H](Cc3ccccc3)N(C[C@@H](O)C[C@@H](Cc3ccccc3)C(=O)N[C@H]3c4ccccc4C[C@H]3O)C2=O)c1 [methyl 3-{[(3S,5R)-5-benzyl-1-[(2S,4R)-4-benzyl-2-hydroxy-4-{[(1S,2R)-2-hydroxy-2,3-dihydro-1H-inden-1-yl]carbamoyl}butyl]-2-oxopyrrolidin-3-yl]methyl}benzoate] | 9.38
